Experimental data from ChEMBL document CHEMBL1125491, “Potential prodrug derivatives of 2',3'-didehydro-2',3'-dideoxynucleosides. Preparations and antiviral activities” (J Med Chem, 1992).

Legend:
[1] = system: Human immunodeficiency virus 1; test: Concentration required to protect 50% of HIV-1 infected MT-4 cells against viral cytopathicity.; assay type: functional, organism-based; conditions: Human immunodeficiency virus 1, MT4
[2] = system: Human immunodeficiency virus 2; test: Concentration required to protect 50% of HIV-2 infected MT-4 cells against viral cytopathicity.; assay type: functional, organism-based; conditions: Human immunodeficiency virus 2, MT4
MT4 = test: Concentration required to reduce the number of viable uninfected MT-4 cells by 50%.; assay type: functional; conditions: Homo sapiens

In the case of `Nc1ncnc2c1ncn2[C@H]1CC[C@@H](CO)O1`, the EC50 [1] is reported as 41 µM, the EC50 [2] is reported as 72 µM and the CC50 (MT4) is reported as > 100 µM.

`CC1=CN([C@H]2C[C@H](OP(=O)(O)OC[C@@H]3C=C[C@H](n4ccc(N)nc4=O)O3)[C@@H](CO)O2)C(=O)NC1N` (stereo partly specified) gave an EC50 [1] of 1.8 µM, an EC50 [2] of 1.6 µM and a CC50 (MT4) of 28 µM.

For `CC1=CN([C@H]2C[C@H](OP(=O)(O)OC[C@@H]3C=C[C@H](n4cnc5c(N)ncnc54)O3)[C@@H](CO)O2)C(=O)NC1N` (stereo partly specified), the EC50 [1] was 26 µM, the EC50 [2] was 29 µM and the CC50 (MT4) was 198 µM.

In the case of `Nc1ccn(C2C=CC(COP(O)(=S)c3ccccc3)O2)c(=O)n1` (stereo unspecified), the EC50 [1] is reported as > 500 µM, the EC50 [2] is reported as > 500 µM and the CC50 (MT4) is reported as > 500 µM.

`COP(=O)(O)OCC1C=CC(n2cnc3c(N)ncnc32)O1` (stereo unspecified) was tested, and the EC50 [1] was 38 µM, the EC50 [2] was 58 µM and the CC50 (MT4) was 168 µM.

`COP(=O)(O)OCC1C=CC(n2ccc(N)nc2=O)O1` (stereo unspecified) showed an EC50 [1] of 3.1 µM, an EC50 [2] of 1.7 µM and a CC50 (MT4) of 27 µM.

`Nc1ncnc2c1ncn2C1C=CC(COP(O)(=S)c2ccccc2)O1` (stereo unspecified) was tested, and the EC50 [1] was > 500 µM, the EC50 [2] was > 500 µM and the CC50 (MT4) was > 500 µM.

`Nc1ncnc2c1ncn2C1C=CC(COP(=O)(O)Oc2ccccc2)O1` (stereo unspecified) showed an EC50 [1] of 24 µM, an EC50 [2] of 37 µM and a CC50 (MT4) of 157 µM.

`Nc1ccn(C2C=CC(COP(=O)(O)Oc3ccccc3)O2)c(=O)n1` (stereo unspecified) was tested, and the EC50 [1] was 1.9 µM, the EC50 [2] was 1.5 µM and the CC50 (MT4) was 35 µM.

For `Nc1ccn(C2C=CC(COP(=O)(O)c3ccccc3)O2)c(=O)n1` (stereo unspecified), the EC50 [1] was 111 µM, the EC50 [2] was 136 µM and the CC50 (MT4) was > 500 µM.

In the case of `Nc1ncnc2c1ncn2C1C=CC(COP(=O)(O)c2ccccc2)O1` (stereo unspecified), the EC50 [1] is reported as > 500 µM, the EC50 [2] is reported as > 500 µM and the CC50 (MT4) is reported as > 500 µM.

With `Nc1ccn([C@H]2CC[C@@H](CO)O2)c(=O)n1` [ZALCITABINE] the EC50 [1] was 0.91 µM, the EC50 [2] was 0.69 µM and the CC50 (MT4) was 30 µM.
